Results published in patent US8067424B2, “Selective inhibitors for cyclin-dependent kinases” (Emory University, priority 2007, dated 2011).
Like-named read-outs stand apart in the source and are kept apart here.

Assays:
OVCAR-8 = test: cells; details: Homo sapiens
T-47D = details: for Mean Optical Densities / Percent Growth: T-47D
CAKI-1 = test: cells; details: Homo sapiens
MOLT-4 = test: cells; details: Homo sapiens
HS 578T [1] = details: for Mean Optical Densities / Percent Growth: HS 578T
HL-60(TB) = details: for Mean Optical Densities / Percent Growth: HL-60(TB)
EKVX = test: cells; details: Homo sapiens
HS 578T [2] = test: cells; details: Homo sapiens
A549/ATCC = test: cells; details: Homo sapiens
UO-31 = test: cells; details: Homo sapiens
[3] = TK-10, log10 concentration −4.0
[4] = TK-10, log10 concentration −5.0
[5] = TK-10, log10 concentration −6.0
[6] = TK-10, log10 concentration −7.0
[7] = TK-10, log10 concentration −8.0
[8] = SNB-19, log10 concentration −4.0
[9] = SNB-19, log10 concentration −5.0
[10] = SNB-19, log10 concentration −6.0
[11] = SNB-19, log10 concentration −7.0
[12] = SNB-19, log10 concentration −8.0
[13] = HOP-62, log10 concentration −4.0
[14] = HOP-62, log10 concentration −5.0
[15] = HOP-62, log10 concentration −6.0
[16] = HOP-62, log10 concentration −7.0
[17] = HOP-62, log10 concentration −8.0
[18] = UACC-62, log10 concentration −4.0
[19] = UACC-62, log10 concentration −5.0
[20] = UACC-62, log10 concentration −6.0
[21] = UACC-62, log10 concentration −7.0
[22] = UACC-62, log10 concentration −8.0
[23] = COLO 205, log10 concentration −4.0
[24] = COLO 205, log10 concentration −5.0
[25] = COLO 205, log10 concentration −6.0
[26] = COLO 205, log10 concentration −7.0
[27] = COLO 205, log10 concentration −8.0

## CC(C)c1cnn2c(NCc3ccccc3)cc(N[C@@H](CO)[C@H](O)CO)nc12 [ICEC0318, (3S)-3-(7-(Benzylamino)-3-isopropylpyrazolo[1,5-a]pyrimidin-5-ylamino)butane-1,2,4-triol]
OVCAR-8; OVCAR-8
  GI50: 340 nM
OVCAR-8; OVCAR-8, read-out: LC50
  CC50: > 100000 nM
T-47D; T-47D (Breast Cancer)
  TGI: 2.55E−6
T-47D; log10 concentration −4.0
  Mean Optical Densities: 0.479
  Percent Growth: −12%
T-47D; log10 concentration −5.0
  Mean Optical Densities: 0.516
  Percent Growth: −5%
T-47D; log10 concentration −6.0
  Mean Optical Densities: 0.565
  Percent Growth: 3%
T-47D; log10 concentration −7.0
  Mean Optical Densities: 1.199
  Percent Growth: 94%
T-47D; log10 concentration −8.0
  Mean Optical Densities: 1.266
  Percent Growth: 103%
CAKI-1; CAKI-1
  GI50: 249 nM
CAKI-1; CAKI-1, read-out: LC50
  CC50: > 100000 nM
TK-10; TK-10 (Renal Cancer)
  TGI: >1.00E−4
TK-10; [3]
  Mean Optical Densities: 0.610
  Percent Growth: 18%
TK-10; [4]
  Mean Optical Densities: 0.593
  Percent Growth: 15%
TK-10; [5]
  Mean Optical Densities: 0.572
  Percent Growth: 12%
TK-10; [6]
  Mean Optical Densities: 1.192
  Percent Growth: 101%
TK-10; [7]
  Mean Optical Densities: 1.202
  Percent Growth: 103%
SNB-19; SNB-19 (CNS Cancer)
  TGI: 4.89E−5
SNB-19; [8]
  Mean Optical Densities: 0.492
  Percent Growth: −2%
SNB-19; [9]
  Mean Optical Densities: 0.537
  Percent Growth: 4%
SNB-19; [10]
  Mean Optical Densities: 0.580
  Percent Growth: 9%
SNB-19; [11]
  Mean Optical Densities: 1.247
  Percent Growth: 84%
SNB-19; [12]
  Mean Optical Densities: 1.309
  Percent Growth: 91%
MOLT-4; MOLT-4
  GI50: 259 nM
MOLT-4; MOLT-4, read-out: LC50
  CC50: > 100000 nM
HOP-62; HOP-62 (Non-Small Cell Lung Cancer)
  TGI: 7.68E−7
HOP-62; [13]
  Mean Optical Densities: 0.336
  Percent Growth: −28%
HOP-62; [14]
  Mean Optical Densities: 0.393
  Percent Growth: −15%
HOP-62; [15]
  Mean Optical Densities: 0.412
  Percent Growth: −12%
HOP-62; [16]
  Mean Optical Densities: 1.165
  Percent Growth: 89%
HOP-62; [17]
  Mean Optical Densities: 1.312
  Percent Growth: 107%
KM12; KM12 (Colon Cancer)
  TGI: >1.00E−4
KM12; KM12, log10 concentration −4.0
  Mean Optical Densities: 0.305
  Percent Growth: 10%
KM12; KM12, log10 concentration −5.0
  Mean Optical Densities: 0.304
  Percent Growth: 10%
KM12; KM12, log10 concentration −6.0
  Mean Optical Densities: 0.318
  Percent Growth: 12%
KM12; KM12, log10 concentration −7.0
  Mean Optical Densities: 0.802
  Percent Growth: 80%
KM12; KM12, log10 concentration −8.0
  Mean Optical Densities: 1.036
  Percent Growth: 113%
HS 578T [1]; HS 578T (Breast Cancer)
  TGI: 8.54E−7
HS 578T [1]; log10 concentration −4.0
  Mean Optical Densities: 0.314
  Percent Growth: −22%
HS 578T [1]; log10 concentration −5.0
  Mean Optical Densities: 0.352
  Percent Growth: −12%
HS 578T [1]; log10 concentration −6.0
  Mean Optical Densities: 0.373
  Percent Growth: −7%
HS 578T [1]; log10 concentration −7.0
  Mean Optical Densities: 0.803
  Percent Growth: 95%
HS 578T [1]; log10 concentration −8.0
  Mean Optical Densities: 0.867
  Percent Growth: 110%
HL-60(TB); HL-60(TB) (Leukemia)
  TGI: 6.07E−7
HL-60(TB); log10 concentration −4.0
  Mean Optical Densities: 0.495
  Percent Growth: −2%
HL-60(TB); log10 concentration −5.0
  Mean Optical Densities: 0.484
  Percent Growth: −4%
HL-60(TB); log10 concentration −6.0
  Mean Optical Densities: 0.407
  Percent Growth: −19%
HL-60(TB); log10 concentration −7.0
  Mean Optical Densities: 0.932
  Percent Growth: 69%
HL-60(TB); log10 concentration −8.0
  Mean Optical Densities: 1.084
  Percent Growth: 94%
UACC-62; UACC-62 (Melanoma)
  TGI: 3.16E−7
UACC-62; [18]
  Mean Optical Densities: 0.078
  Percent Growth: −90%
UACC-62; [19]
  Mean Optical Densities: 0.165
  Percent Growth: −78%
UACC-62; [20]
  Mean Optical Densities: 0.142
  Percent Growth: −81%
UACC-62; [21]
  Mean Optical Densities: 1.821
  Percent Growth: 81%
UACC-62; [22]
  Mean Optical Densities: 2.110
  Percent Growth: 102%
EKVX
  GI50: 286 nM
EKVX; read-out: LC50
  CC50: > 100000 nM
COLO 205; COLO 205 (Colon Cancer)
  TGI: 3.82E−7
COLO 205; [23]
  Mean Optical Densities: 0.030
  Percent Growth: −77%
COLO 205; [24]
  Mean Optical Densities: 0.050
  Percent Growth: −62%
COLO 205; [25]
  Mean Optical Densities: 0.065
  Percent Growth: −50%
COLO 205; [26]
  Mean Optical Densities: 0.372
  Percent Growth: 70%
COLO 205; [27]
  Mean Optical Densities: 0.499
  Percent Growth: 107%
HS 578T [2]
  GI50: 276 nM
HS 578T [2]; read-out: LC50
  CC50: > 100000 nM
U251; U251 (CNS Cancer)
  TGI: >1.00E−4
U251; U251, log10 concentration −4.0
  Mean Optical Densities: 0.262
  Percent Growth: 2%
U251; U251, log10 concentration −5.0
  Mean Optical Densities: 0.289
  Percent Growth: 5%
U251; U251, log10 concentration −6.0
  Mean Optical Densities: 0.299
  Percent Growth: 6%
U251; U251, log10 concentration −7.0
  Mean Optical Densities: 0.999
  Percent Growth: 81%
U251; U251, log10 concentration −8.0
  Mean Optical Densities: 1.168
  Percent Growth: 99%
A549/ATCC; A549
  GI50: 338 nM
A549/ATCC; A549, read-out: LC50
  CC50: > 100000 nM
UO-31; UO-31
  GI50: 289 nM
UO-31; UO-31, read-out: LC50
  CC50: > 100000 nM
